Results published in ChEMBL document CHEMBL1914384, “Design, synthesis, and structure-activity relationship studies of highly potent novel benzoxazinyl-oxazolidinone antibacterial agents” (J Med Chem, 2011).
In brackets after ≈: the same amount, converted by molar mass.

Assays:
[1] = Tmax in Sprague-Dawley rat at 15 mg/kg, po by LC-MS analysis; assay type: ADME, organism-based; set-up: dose 15 mg/kg, route oral; settings: in vivo
[2] = tested on: Staphylococcus epidermidis; assay: Antibacterial activity against methicillin-resistant Staphylococcus epidermidis after 16 hrs by agar dilution method; assay type: functional
[3] = tested on: Staphylococcus epidermidis; assay: Antibacterial activity against linezolid-resistant Staphylococcus epidermidis after 16 hrs by agar dilution method; assay type: functional
Staphylococcus aureus [4] = assay: Antibacterial activity against Staphylococcus aureus ATCC 29213 after 16 hrs by agar dilution method; assay type: functional; settings: ATCC 29213, 16 h
Enterococcus faecium [5] = assay: Antibacterial activity against linezolid-resistant Enterococcus faecium after 16 hrs by agar dilution method; assay type: functional
Staphylococcus aureus [6] = assay: Antibacterial activity against linezolid-resistant Staphylococcus aureus after 16 hrs by agar dilution method; assay type: functional
[7] = Cmax in Sprague-Dawley rat at 15 mg/kg, iv by LC-MS analysis; assay type: ADME, organism-based; set-up: dose 15 mg/kg, route intravenous; settings: in vivo
[8] = Clearance in Sprague-Dawley rat at 15 mg/kg, po by LC-MS analysis; assay type: ADME, organism-based; set-up: dose 15 mg/kg, route oral; settings: in vivo
Enterococcus faecium [9] = assay: Antibacterial activity against Linezolid-resistant Enterococcus faecium after 16 hrs by agar dilution method relative to Linezolid; assay type: functional
[10] = Clearance in Sprague-Dawley rat at 15 mg/kg, iv by LC-MS analysis; assay type: ADME, organism-based; set-up: dose 15 mg/kg, route intravenous; settings: in vivo
[11] = Half life in Sprague-Dawley rat at 15 mg/kg, po by LC-MS analysis; assay type: ADME, organism-based; set-up: dose 15 mg/kg, route oral; settings: in vivo
Staphylococcus aureus [12] = assay: Antibacterial activity against Linezolid-resistant Staphylococcus aureus after 16 hrs by agar dilution method relative to Linezolid; assay type: functional
Staphylococcus aureus [13] = assay: Antibacterial activity against methicillin-resistant Staphylococcus aureus after 16 hrs by agar dilution method; assay type: functional
Enterococcus faecalis [14] = assay: Antibacterial activity against Enterococcus faecalis after 16 hrs by agar dilution method; assay type: functional
Staphylococcus aureus [15] = assay: Antibacterial activity against Staphylococcus aureus ATCC 19636 infected in mouse systemic infection model administered orally 1 hour after infection measured 48 hrs post-treatment relative to Linezolid; assay type: functional
Enterococcus faecalis [16] = assay: Antibacterial activity against linezolid-resistant Enterococcus faecalis after 16 hrs by agar dilution method; assay type: functional
[17] = tested on: Staphylococcus epidermidis; assay: Antibacterial activity against Linezolid-resistant Staphylococcus epidermidis after 16 hrs by agar dilution method relative to Linezolid; assay type: functional
Enterococcus faecalis [18] = assay: Antibacterial activity against Linezolid-resistant Enterococcus faecalis after 16 hrs by agar dilution method relative to Linezolid; assay type: functional
[19] = Cmax in Sprague-Dawley rat at 15 mg/kg, po by LC-MS analysis; assay type: ADME, organism-based; set-up: dose 15 mg/kg, route oral; settings: in vivo
Staphylococcus aureus [20] = assay: Antibacterial activity against Staphylococcus aureus ATCC 19636 infected in mouse systemic infection model administered orally 1 hour after infection measured 48 hrs of post-treatment; assay type: functional; settings: ATCC 19636, po
Streptococcus pneumoniae [21] = assay: Antibacterial activity against penicillin-resistant Streptococcus pneumoniae after 16 hrs by agar dilution method; assay type: functional
[22] = AUC (0 to infinity) in Sprague-Dawley rat at 15 mg/kg, po by LC-MS analysis; assay type: ADME, organism-based; set-up: time infinity, dose 15 mg/kg, route oral; settings: plasma
Staphylococcus aureus [23] = assay: Antibacterial activity against methicillin-resistant Staphylococcus aureus ATCC 33591 infected in NSA mouse neutropenic model administered orally 1 hour after infection measured 48 hrs post-treatment relative to Linezolid; assay type: functional
Staphylococcus aureus [24] = assay: Antibacterial activity against methicillin-resistant Staphylococcus aureus ATCC 33591 infected in NSA mouse neutropenic model administered orally 1 hour after infection measured 48 hrs post-treatment; assay type: functional; settings: ATCC 33591, po
[25] = Oral bioavailability in Sprague-Dawley rat at 15 mg/kg by LC-MS analysis; assay type: ADME, organism-based; settings: in vivo
[26] = Oral bioavailability in Sprague-Dawley rat at 50 mg/kg by LC-MS analysis; assay type: ADME, organism-based; settings: in vivo
Streptococcus pneumoniae [27] = assay: Antibacterial activity against penicillin-resistant Streptococcus pneumoniae after 16 hrs by agar dilution method relative to Linezolid; assay type: functional
[28] = Clearance in Sprague-Dawley rat at 10 mg/kg, iv by LC-MS analysis; assay type: ADME, organism-based; set-up: dose 10 mg/kg, route intravenous; settings: in vivo
[29] = Tmax in Sprague-Dawley rat at 50 mg/kg, po by LC-MS analysis; assay type: ADME, organism-based; set-up: dose 50 mg/kg, route oral; settings: in vivo
[30] = tested on: Staphylococcus epidermidis; assay: Antibacterial activity against methicillin-resistant Staphylococcus epidermidis after 16 hrs by agar dilution method relative to Linezolid; assay type: functional
[31] = Half life in Sprague-Dawley rat at 50 mg/kg, po by LC-MS analysis; assay type: ADME, organism-based; set-up: dose 50 mg/kg, route oral; settings: in vivo
Staphylococcus aureus [32] = assay: Antibacterial activity against Staphylococcus aureus ATCC 29213 after 16 hrs by agar dilution method relative to Linezolid; assay type: functional
[33] = AUC (0 to infinity) in Sprague-Dawley rat at 50 mg/kg, po by LC-MS analysis; assay type: ADME, organism-based; set-up: time infinity, dose 50 mg/kg, route oral; settings: plasma
[34] = Half life in Sprague-Dawley rat at 10 mg/kg, iv by LC-MS analysis; assay type: ADME, organism-based; set-up: dose 10 mg/kg, route intravenous; settings: in vivo
[35] = Cmax in Sprague-Dawley rat at 50 mg/kg, po by LC-MS analysis; assay type: ADME, organism-based; set-up: dose 50 mg/kg, route oral; settings: in vivo
[36] = AUC (0 to infinity) in Sprague-Dawley rat at 10 mg/kg, iv by LC-MS analysis; assay type: ADME, organism-based; set-up: time infinity, dose 10 mg/kg, route intravenous; settings: plasma
Enterococcus faecalis [37] = assay: Antibacterial activity against Enterococcus faecalis after 16 hrs by agar dilution method relative to Linezolid; assay type: functional

SMILES	MIC [2]	MIC [3]	MIC (Staphylococcus aureus [4])	MIC (Enterococcus faecium [5])	MIC (Staphylococcus aureus [6])	fold change (FC) (Enterococcus faecium [9])	fold change (FC) (Staphylococcus aureus [12])	MIC (Staphylococcus aureus [13])	MIC (Enterococcus faecalis [14])	MIC (Enterococcus faecalis [16])	fold change (FC) [17]	fold change (FC) (Enterococcus faecalis [18])	ED50 (Staphylococcus aureus [20])	MIC (Streptococcus pneumoniae [21])	ED50 (Staphylococcus aureus [24])	also measured
CC(=O)NC[C@@H]1OC(=O)N2c3ccc(-c4ccc(C#N)nc4)cc3OC[C@@H]12	0.25 µg/mL (≈ 0.686 µM)	1 µg/mL (≈ 2.74 µM)	0.125 µg/mL (≈ 0.343 µM)	0.5 µg/mL (≈ 1.37 µM)	2 µg/mL (≈ 5.49 µM)	8	8	0.25 µg/mL (≈ 0.686 µM)	0.5 µg/mL (≈ 1.37 µM)	1 µg/mL (≈ 2.74 µM)	8	8	2.5 mg/kg	0.25 µg/mL (≈ 0.686 µM)	< 5 mg/kg	Tmax [1]: 4 h; Cmax [7]: 7000 ng/mL; CL/F [8]: 3.82 mL/min/kg; clearance [10]: 3.07 mL/min/kg; half-life [11]: 5.5 h; fold change (FC) (Staphylococcus aureus [15]): 4; Cmax [19]: 5000 ng/mL; AUC(0-inf) [22]: 66 µg·h/mL; fold change (FC) (Staphylococcus aureus [23]): 3; bioavailability [25]: 81%
CC(=O)NC[C@@H]1OC(=O)N2c3ccc(-c4ccc(C(C)=O)nc4)cc3OC[C@@H]12	0.25 µg/mL (≈ 0.656 µM)	1 µg/mL (≈ 2.62 µM)	0.5 µg/mL (≈ 1.31 µM)	1 µg/mL (≈ 2.62 µM)	2 µg/mL (≈ 5.24 µM)	8	8	0.25 µg/mL (≈ 0.656 µM)	0.5 µg/mL (≈ 1.31 µM)	1 µg/mL (≈ 2.62 µM)	8	8	> 20 mg/kg	0.5 µg/mL (≈ 1.31 µM)	–	–
COc1ccc(-c2ccc3c(c2)OC[C@H]2[C@H](CNC(C)=O)OC(=O)N32)cn1	0.5 µg/mL (≈ 1.35 µM)	2 µg/mL (≈ 5.41 µM)	0.25 µg/mL (≈ 0.677 µM)	1 µg/mL (≈ 2.71 µM)	4 µg/mL (≈ 10.8 µM)	–	–	0.5 µg/mL (≈ 1.35 µM)	0.5 µg/mL (≈ 1.35 µM)	2 µg/mL (≈ 5.41 µM)	–	–	–	0.5 µg/mL (≈ 1.35 µM)	–	–
CC(=O)NC[C@@H]1OC(=O)N2c3ccc(-c4ccc(-c5nnnn5C)nc4)cc3OC[C@@H]12	0.25 µg/mL (≈ 0.593 µM)	2 µg/mL (≈ 4.75 µM)	0.5 µg/mL (≈ 1.19 µM)	1 µg/mL (≈ 2.37 µM)	4 µg/mL (≈ 9.49 µM)	–	–	0.25 µg/mL (≈ 0.593 µM)	0.5 µg/mL (≈ 1.19 µM)	1 µg/mL (≈ 2.37 µM)	–	–	–	0.25 µg/mL (≈ 0.593 µM)	–	–
CC(=O)NC[C@@H]1OC(=O)N2c3ccc(-c4ccc(C5(C#N)CC5)nc4)cc3OC[C@@H]12	0.5 µg/mL (≈ 1.24 µM)	1 µg/mL (≈ 2.47 µM)	0.5 µg/mL (≈ 1.24 µM)	1 µg/mL (≈ 2.47 µM)	8 µg/mL (≈ 19.8 µM)	–	–	0.5 µg/mL (≈ 1.24 µM)	0.5 µg/mL (≈ 1.24 µM)	1 µg/mL (≈ 2.47 µM)	–	–	–	0.5 µg/mL (≈ 1.24 µM)	–	–
CC(=O)NC[C@@H]1OC(=O)N2c3ccc(-c4ccc(C5(N)CC5)nc4)cc3OC[C@@H]12	0.25 µg/mL (≈ 0.634 µM)	4 µg/mL (≈ 10.1 µM)	0.25 µg/mL (≈ 0.634 µM)	4 µg/mL (≈ 10.1 µM)	16 µg/mL (≈ 40.6 µM)	–	–	0.25 µg/mL (≈ 0.634 µM)	0.5 µg/mL (≈ 1.27 µM)	4 µg/mL (≈ 10.1 µM)	–	–	–	0.5 µg/mL (≈ 1.27 µM)	–	–
CC(=O)NC[C@@H]1OC(=O)N2c3ccc(-c4ccc(C#CCO)nc4)cc3OC[C@@H]12	0.25 µg/mL (≈ 0.635 µM)	1 µg/mL (≈ 2.54 µM)	0.5 µg/mL (≈ 1.27 µM)	1 µg/mL (≈ 2.54 µM)	4 µg/mL (≈ 10.2 µM)	–	–	0.25 µg/mL (≈ 0.635 µM)	0.5 µg/mL (≈ 1.27 µM)	1 µg/mL (≈ 2.54 µM)	–	–	–	0.5 µg/mL (≈ 1.27 µM)	–	–
CC(=O)NC[C@@H]1OC(=O)N2c3ccc(-c4ccc(N5CCOC5=O)nc4)cc3OC[C@@H]12	0.125 µg/mL (≈ 0.295 µM)	1 µg/mL (≈ 2.36 µM)	0.25 µg/mL (≈ 0.589 µM)	0.5 µg/mL (≈ 1.18 µM)	2 µg/mL (≈ 4.71 µM)	8	8	0.125 µg/mL (≈ 0.295 µM)	0.5 µg/mL (≈ 1.18 µM)	1 µg/mL (≈ 2.36 µM)	8	8	11.3 mg/kg	0.25 µg/mL (≈ 0.589 µM)	9.5 mg/kg	bioavailability [26]: 18%; fold change (FC) (Streptococcus pneumoniae [27]): 4; clearance [28]: 1.28 mL/min/kg; Tmax [29]: 6 h; fold change (FC) [30]: 4; half-life [31]: 4.7 h; fold change (FC) (Staphylococcus aureus [32]): 4; AUC(0-inf) [33]: 123 µg·h/mL; half-life [34]: 3.7 h; Cmax [35]: 9000 ng/mL; AUC(0-inf) [36]: 136 µg·h/mL; fold change (FC) (Enterococcus faecalis [37]): 4
CC(=O)NC[C@H]1CN(c2ccc(N3CCOCC3)c(F)c2)C(=O)O1 [LINEZOLID]	1 µg/mL (≈ 2.96 µM)	16 µg/mL (≈ 47.4 µM)	1 µg/mL (≈ 2.96 µM)	8 µg/mL (≈ 23.7 µM)	> 16 µg/mL	–	–	1 µg/mL (≈ 2.96 µM)	–	–	–	–	9.5 mg/kg	–	14.1 mg/kg	–
